Experimental data as given in US5968526A, “T cell epitopes of the major allergens from Dermatophagoides (house dust mite)” (Immulogic Pharamaceutical Corporation, priority 1995, dated 1999).

Assays:
Format in all cases: cell-based, human
[1] = test system: T cell lines primed in vitro with Der p I; test: T cell proliferation with fine map and modified Group I peptides (Example XIV); settings: FIGS. 31a-b
Experimental: Long term T cell lines were established by stimulation of 2×10^6 PBL/ml in bulk cultures of complete medium (RPMI-1640, 2 mM L-glutamine, 100 U/ml penicillin/streptomycin, 5×10^-5 M 2-mercaptoethanol, and 10 mM HEPES supplemented with 5% heat inactivated human AB serum) with 30 μg/ml of purified native Der p I or Der p II for 5-6 days at 37° C. in a humidified 5% CO2 incubator to select for house dust mite protein allergen reactive T cells. This amount of priming antigen was determined to be optimal for the activation of T cells from house dust mite allergic patients. Viable cells were purified by LSM centrifugation and cultured in complete medium supplemented with 5 units recombinant human IL-2/ml and 5 units recombinant human IL-4/ml for up to three weeks until the cells no longer responded to lymphokines and were considered "rested". The ability of the T cells to proliferate to selected peptides, purified Der p I or Der p II, or positive (PHA) controls or negative controls (medium only) was then assessed. For assay, 2×10^4 rested cells were restimulated in the presence of 2×10^4 autologous Epstein-Barr virus (EBV)-transformed B cells (prepared as described below) (gamma-irradiated with 25,000 RADS) or with 5×10^4 autologous PBMs (gamma-irradiated with 3500 RADS), with 2-50 μg/ml of purified native Der p I or Der p II in a volume of 200 μl complete medium in duplicate or triplicate wells in 96-well round bottom plates for 3 days. Each well then received 1 μCi tritiated thymidine for 16-20 hours. The counts incorporated were collected onto glass fiber filter mats and processed for liquid scintillation counting. […] The titrations were used to optimize the dose of peptides in T cell assays.
The maximum response in a titration of each peptide is expressed as the stimulation index (S.I.). The S.I. is the counts per minute (CPM) incorporated by cells in response to peptide, divided by the CPM incorporated by cells in medium only. […] The positive results were used in calculating mean stimulation indices for each peptide for the individual patient tested.
The above procedure was followed with 18 patients in the studies using peptides derived from Der p I and Der f I (FIGS. 31a-b), and 21 patients in the studies with Der p II peptides (FIGS. 32a-b). Individual patient results were used in calculating the mean S.I. for each peptide if the patient responded to the Der p I or Der p II protein at an S.I. of 2.0 or greater and the patient responded to at least one peptide derived from a house dust mite allergen at an S.I. f 2.0 or greater. A summary of positive experiments from the patients tested is shown in FIGS. 32a and 32b and FIGS. 33a and 33b. The bars represent the positivity index. […] In parenthesis above each bar are the mean stimulation indices for each peptide or protein for the group of patients tested.
Autologous EBV-transformed cell lines were γ-irradiated with 25,000 Rad and used as antigen presenting cells in secondary proliferation assays and secondary bulk stimulations. These EBV-transformed cell lines were made by incubating 5×10^6 PBL with 1 ml of B-59/8 Marmoset cell line (ATCC CRL1612, American Type Culture Collection, Rockville, Md.) conditioned medium in the presence of 1 μg/ml phorbol 12-myristate 13-acetate (PMA) at 37° C. for 60 minutes in 12×75 mm polypropylene round-bottom Falcon snap cap tubes (Becton Dickinson Labware, Lincoln Park, N.J.). These cells were then diluted to 1.25×10^6 cells/ml in RPMI-1640 as described above except supplemented with 10% heat-inactivated fetal bovine serum and cultured in 200 μl aliquots in flat bottom culture plates until visible colonies were detected. They were then transferred to larger wells until the cell lines were established.

[2] = test system: T cell lines primed in vitro to Der p I; test: secondary proliferation of Der p I-primed T cell lines (Examples V, VII, XI); settings: for T cell response to selected Der p I peptides / T cell reactivity: 33 positive experiments; for T cell response to selected Der p I peptides: FIG. 13; for positivity index (P.I.): mean S.I. × percent responders, 33 patients; for T cell reactivity: overlapping Der p I peptides
Experimental: 10^7 PBMC from individual 543 were cultured in 10 ml RPMI-1640 containing 5% pooled human AB serum and supplemented with glutamine, penicillin, streptomycin and HEPES buffer in the presence of 20 μg/ml purified native Der p I/ml at 37° C. for 7 days. Viable cells were then purified by Ficoll-Hypaque centrifugation and cultured for 2 additional weeks in RPMI-1640/5% AB serum containing 5 units recombinant human IL-2/ml and 5 units recombinant human IL-4/ml. The resting T cells were then tested in a secondary proliferation assay to assess T cell responses to various house dust mite proteins and peptides. For assay, 2×10^4 resting T cells were cultured in 200 μl of RPMI-1640/5% AB serum for 3 days at 37° C. in the presence of 2×10^4 autologous Epstein-Barr virus transformed B cells (20,000 Rads) as antigen presenting cells with various concentrations of purified native Der p I or synthetic Der p I peptides. Each well then received 1 μCi tritiated thymidine for 16 hours. The counts incorporated were collected onto glass fiber filters and processed for liquid scintillation counting. Medium alone, acting as negative control, contained no allergen or peptide. The results of this experiment indicate that this particular patient responds with an S.I. of at least 2.0 to several peptides derived from the Der p I protein, including DP I-1, DP I-2, DP I-4, DP I-11, DP I-5, DP I-13, DP I-15, DP I-6.1, DP I-8, DP I-9, DP I-16, DP I-10 and DP I-17 (data not shown).
The above procedure was followed with a number of other house dust mite allergic individuals except a) in individual cases, the length of time of cultivation with IL-2 and IL-4 varied; b) in individual cases, the T cells were primed with either purified native (N) or recombinant (R) Der p I protein at either 20 μg/ml or 10 μg/ml; and c) in individual cases, x-irradiated (3500 Rads) autologous PBMC were used as antigen presenting cells in the secondary proliferation assay.
Individual results were considered positive and used if the individual responded to the Der p I protein and at least one peptide derived from Der p I at an S.I. of 2.0 or greater. The resting T cell lines primed with recombinant or native Der p I-stimulated PBMC were tested for reactivity to synthetic Der p I peptides. The maximum response for each peptide in a titration of the antigen is expressed as the T cell stimulation index (S.I.). The S.I. is the counts-per-minute (CPM) incorporated by cells in response to the peptide divided by the CPM incorporated by cells in medium only. […] However, only individual S.I. values greater than or equal to 2.0 (a response two-fold or greater over background), referred to herein as "positive" results, were used in calculating mean T cell stimulation indices for each peptide for the patient or group of patients tested. […] The T cell stimulation index is calculated by: [formula]
The bar represents the cumulative rank of the peptide response in the group of patients. To determine the cumulative rank, the 5 peptides with the highest S.I. in each individual were determined and assigned a numerical rank in descending order, with 5 representing the strongest response. The ranks for each peptide were then summed in the group of patients to determine the cumulative rank for the peptide. […] Given the percent positive and the mean T cell stimulation index, the positivity index (P.I.) for each peptide can be calculated.
The Der p I and Der f I proteins are very homologous (81% identity). Thus, experiments, similar to those of Example V, were carried out to determine the T cell responses of Der p I primed T cell lines when challenged with various Der p I peptides and substantially matching […].
The results of T cell studies using selected peptides derived from the Der p I, the Der f I, the Der p II and the Der f II proteins are shown in FIGS. 13-18a-d. […]

[3] = test system: PBMC from mite-allergic patient; test: primary T cell (PBMC) proliferation, mite-allergic patient, tritiated thymidine; settings: medium 1071 ± 30
Experimental: Peripheral blood mononuclear cells (PBMC) were purified by Ficoll-Hypaque centrifugation of a peripheral blood specimen from mite-allergic patient and were assayed for proliferation in response to various antigens, i.e., affinity-purified Der p I, affinity purified Der p II, various Der p I and Der p II peptides. For assay, 5×10^4 PBMC were cultured in triplicate microwells for 7 days at 37° C. in the presence of various concentrations of antigen in 200 μl RPMI-1640 containing 5% human AB serum. Each well then received 1 μCi tritiated thymidine for 16 hours. The counts incorporated were collected onto glass fiber filters and processed for liquid scintillation counting. […] The CPM +/- standard deviation are shown. The stimulation index of each response (S.I.) is the ratio of the ^3 H-thymidine CPM incorporated by the cells in response to antigen divided by the ^3 H-thymidine CPM incorporated by cells in medium only. […] Thus, these peptides contain Der p I or Der p II T cell epitopes recognized by T cells from this particular allergic patient.

[4] = test system: T cell lines primed in vitro to Der f I; test: secondary proliferation of Der f I-primed T cell lines (Examples VI, VII, XI); settings: Der f I primed; 8 positive experiments; FIG. 8
Experimental: Experiments similar to those of Example V were performed to determine. the T cell-reactive areas of the Der f I protein. For example, PBMC from house dust mite-allergic patient 783 were isolated as described in Example V and were stimulated in vitro-- with recombinant purified Der f I at 20 μg/ml. The results of the proliferation assay with Der f I peptides using x-irradiated (3500 Rads) autologous PBMC as antigen presenting cells indicate that T cells from this patient respond to the peptides DF I-8.1, DF I-9, DF I-6, DF I-10, DF I-2.1, DF I-3, DF I-11, DF I-5, DF I-1, and DF I-17 (data not shown).
The above procedure was followed in a number of patients except in individual cases, T cell lines were primed with affinity purified Der f I at 20 μg/ml or at 10 μg/ml and x-irradiated (25,000 Rads) autologous Epstein-Barr virus transformed B cells were used as antigen presenting cells. […]
Similarly, the procedure described in Example VI was followed with T cell lines from 9 patients primed in vitro to the Der f I protein then analyzed for response to selected peptides derived from the protein. The data was analyzed as described in Example VI. […]

Substance	T cell response, Group I peptides [1]	T cell response to selected Der p I peptides [2]	positivity index (P.I.) [2]	also measured
DP I-23.1: Der p I peptide (EYIQHNGVVQESYYRYVAREQCRRPNAQ)	positive T cell studies	respond significantly	at least 150	ranked sum of peptide responses ([2]; FIG. 15b, preferred peptides): highest ranked sum
DF I-22.4: Der f I peptide (VAATESAYLAYRNTSLDLSEQELVDCASQ)	positive responses			T cell response to selected Der f I peptides ([2]; Der p I primed, 30 positive experiments, FIG. 15a): respond significantly
DP I-2: Der p I peptide (EIDLRQMRTVTPIRMQGGCGSCWAFSG)	positive response			CPM ± S.D. ([3]; 10 μg/ml): 1395 ± 47 CPM; CPM ± S.D. ([3]; 30 μg/ml): 1283 ± 34 CPM; CPM ± S.D. ([3]; 100 μg/ml): 1486 ± 38 CPM; T cell reactivity [2]: significant regions of T cell reactivity
DP I-4: Der p I peptide (VAATESAYLAHRNQSLDLAEQ)	positive response			T cell response to Der p I peptides [4]: respond significantly; T cell reactivity [2]: significant regions of T cell reactivity
DP I-21.1: Der p I peptide (TNACSINGNAPAEIDLRQMRTVTPIRMQ)	positive response	respond significantly	at least 150	
DP I-11.1: Der p I peptide, native sequence (HRNQSLDLAEQELVDCASQHGC)	positive response			difference in mean S.I. or percentage of positive responses, original vs additional (native sequence) peptides ([2]; DP I-11/12 vs DP I-11.1/12.1): no significant difference
DP I-26.1: Der p I peptide (IIGIKDLDAFRHYDGRTIIQRDNGYQ)	positive T cell studies	respond significantly	at least 150	
